Test results taken from US8242113B2, “Oxazolidinone derivatives with cyclic amidoxime or cyclic amidrazone pharmaceutical compositions thereof” (Legochem Biosciences, Inc., priority 2008, dated 2012).
Values after ≈ are worked out from the molar mass of the structure shown. Like-named read-outs stand apart in the source and are kept apart here.

Columns and labels:
[1] = Cytotoxicity measurement by MTT assay; assay type: cell-based; conditions: Chinese hamster
From the text: The MTT assay is a […], colorimetric assay for mammalian cell survival and cell proliferation. It depends on the reduction of tetrazolium salt MTT by the mito-chondrial succinate dehrogenase of viable cells to form a blue formazan product. The assay measures cell respiration, and the amount of formazan product to the number of living cells present in culture. In this test, Chinese hamster ovary cells (CHO-K1) were purchased from ATCC (USA). Subcultured CHO cells were detached from the culture flask by treating with trypsin-EDTA solution, and seeded on a 96-well microplate, with 5000 cells per each well. After culturing for 24 hours in a 37° C., 5% CO2 incubator, the cells were treated with the oxazolidinone derivatives according to the present invention synthesized in the above examples, at 7 different concentrations. After further culturing for 48 hours in a 37° C., 5% CO2 incubator, 15 uL of […] MTT solution was added to each well. The cells were further incubated in the 37° C., 5% CO2 incubator for about 2 hours. Then, the culture medium was discarded and 100 uL of DMSO solution was added to each well. After agitating the microplate for 30 minutes, absorbance was measured at 550 nm using Spectramax plus 190 plate reader (Molecular Devices, USA). The absorbance decrease of the compound-treated groups compared to the non-treated control group is an indication of the decrease of surviving cells, which enables the measurement of the cytotoxicity of the compounds. The CC50 value, i.e., the concentration at which the cell proliferation is reduced to 50%, of the compounds according to the present invention was computed using the GraFit statistical analysis program (version 5.0.12) purchased from Erithacus Software after calculating the percentages of the absorbance at various concentrations as compared to the control group.

[2] = biological target: T1, monoamine oxidase A (MAO A) (Homo sapiens, UniProt P21397); assay: MAO inhibition (MAO-GLO assay); assay type: biochemical; conditions: MAO-GLO kit, compounds at 3.9-500 uM; read-out: MAOA
T1 construct: purchased Sigma-Aldrich (USA)
T1 sequence (P21397 1-527): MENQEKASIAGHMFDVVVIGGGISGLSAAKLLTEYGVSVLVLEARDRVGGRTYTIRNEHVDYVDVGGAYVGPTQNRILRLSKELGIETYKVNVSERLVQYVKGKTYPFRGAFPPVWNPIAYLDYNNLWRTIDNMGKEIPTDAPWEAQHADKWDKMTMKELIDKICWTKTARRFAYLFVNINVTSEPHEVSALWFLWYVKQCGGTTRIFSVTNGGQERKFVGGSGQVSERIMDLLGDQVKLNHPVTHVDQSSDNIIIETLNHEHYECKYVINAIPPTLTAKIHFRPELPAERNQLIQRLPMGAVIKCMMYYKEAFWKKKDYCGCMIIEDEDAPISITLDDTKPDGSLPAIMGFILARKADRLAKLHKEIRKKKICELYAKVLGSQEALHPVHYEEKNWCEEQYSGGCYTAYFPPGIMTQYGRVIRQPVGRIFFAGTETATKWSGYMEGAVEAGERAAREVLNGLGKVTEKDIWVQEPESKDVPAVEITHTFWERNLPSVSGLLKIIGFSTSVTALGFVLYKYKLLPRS
Experimental: (§1) The oxazolidinone derivatives according to the present invention synthesized in the examples were tested for inhibition of monoamine oxidase A (MAO A) and monoamine oxidase B (MAO B). MAO-GLO assay kit was purchased from Promega (USA) and MAO A and MAO B enzymes were purchased from Sigma-Aldrich (USA). From the aldehyde product resulting from the action of the MAO enzyme on the amine group of the substrate, luciferin methyl ester is produced. The luciferin detection reagent is then added to inactivate the MAO enzymes. The esterase and the luciferase included in the reagent oxidize luciferin, thereby emitting light. The light emission is detected to measure the activity of MAO. The light emission was detected using LEADseeker (Amershan Bioscience, Sweden). MAO activity was measured in the presence of the compounds according to the present invention at 3.9-500 uM and compared with the non-treated control group. Linezolid was used as a comparison compound. For the measurement of the MAO inhibition activity of the compounds represented by Chemical Formula 1, the IC50 value, i.e., the concentration of the compounds at which the enzymatic activity is inhibited by 50% (This value is related with the inhibition constant Ki), can be determined. The concentration of the inhibitor at which the rate of hydrolysis of the substrate is reduced to 50% (i.e., the IC50 value) can be determined from a log plot of the relative rate of hydrolysis (as compared to the non-inhibited control group) versus the concentration of the compounds of Chemical Formula 1.
(§2) The MAO inhibition effect of the compounds of Chemical Formula 1 was measured by determining the inhibition constant Ki. Ki=IC50/{1+(┌S┐/Km)} Equation 1
(§3) In Equation 1, Km is the Michaelis-Menten constant, i.e., the concentration of the substrate at which the rate of enzymatic reaction is half of the maximum, and IC50 is the concentration of the inhibitor at which the rate of the hydrolysis of the substrate is reduced by 50%. The IC50 value was measured by plotting a log plot of the relative rate of hydrolysis (as compared to the non-inhibited control group) versus the concentration of the compounds of Chemical Formula 1. GraFit statistical analysis program (version 5.0.12) purchased from Erithacus Software was used.

[3] = biological target: T2, monoamine oxidase B (MAO B) (Homo sapiens, UniProt P27338); assay: MAO inhibition (MAO-GLO assay); assay type: biochemical; conditions: MAO-GLO kit, compounds at 3.9-500 uM; read-out: MAOB
T2 construct: purchased Sigma-Aldrich (USA)
T2 sequence (P27338 1-520): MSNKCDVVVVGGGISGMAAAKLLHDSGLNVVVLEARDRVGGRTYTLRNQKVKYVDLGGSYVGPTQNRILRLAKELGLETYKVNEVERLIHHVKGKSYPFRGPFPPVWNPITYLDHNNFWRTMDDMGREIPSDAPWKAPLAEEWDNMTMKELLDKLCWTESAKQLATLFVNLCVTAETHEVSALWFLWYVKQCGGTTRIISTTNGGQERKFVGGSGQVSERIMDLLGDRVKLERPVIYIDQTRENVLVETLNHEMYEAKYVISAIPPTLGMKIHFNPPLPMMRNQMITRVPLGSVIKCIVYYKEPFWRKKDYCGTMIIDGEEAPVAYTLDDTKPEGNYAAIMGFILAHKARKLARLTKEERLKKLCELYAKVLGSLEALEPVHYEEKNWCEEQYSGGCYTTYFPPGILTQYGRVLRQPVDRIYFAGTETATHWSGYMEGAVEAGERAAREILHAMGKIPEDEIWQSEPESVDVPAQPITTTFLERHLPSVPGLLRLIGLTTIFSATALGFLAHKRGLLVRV
Experimental: as §1, §2, §3

[4] = test system: methicillin-resistant Staphylococcus aureus (MRSA); assay: In vitro antibacterial activity, broth microdilution (MIC90); conditions: read-out: Antibacterial activity MIC90, MRSA
From the text: (§4) MIC90 measurement was made according to the broth microdilution method based on the CLSI document [Clinical and Laboratory Standards Institute Document.
(§5) The test compounds in DMSO solution were further diluted 20-fold with sterile distilled water.

[5] = test system: linezolid- and vancomycin-resistant Enterococcus faecalis (LVRE); assay: as above; conditions: read-out: Antibacterial activity MIC90, LVRE
From the text: as §4, §5

[6] = Measurement of solubility in water by 1H NMR; assay type: physicochemical; conditions: for solubility at 30 min: water, thermodynamic from solid
Experimental: Water solubilities of methanesulfonates (MSA) of representative compounds among the oxazolidinone derivatives of Chemical Formula 1 were measured.
Solubility measurement was done by ^1H NMR according to the following method. First, a methanesulfonate (100 mg) of the compound was added to D2O (0.5 mL). After preparing a saturated solution by vigorous shaking for 30 minutes, the solution was filtered and 0.3 mL is taken therefrom. A reference compound solution (0.3 mL) (In this test example, DMSO diluted with D2O was used.) with an exactly known concentration was added thereto. From the ^1H NMR spectrum of the solution, the integral ratio of the sample peak to the reference (DMSO) peak was calculated. Since the concentration of the reference solution is known, the mols of the sample can be calculated from the integral ratio. Then, the solubility of the sample was calculated.

COC(=S)NC[C@H]1CN(c2ccc(N3C=NN(C=O)CC3)c(F)c2)C(=O)O1 [Compound 53]
CC50 at 48 h [1]: > 130 µM | IC50 [2]: 24 µM | IC50 [3]: 58 µM | MIC90 [4]: 0.5 µg/mL (≈ 1.26 µM) | MIC [5]: 8 µg/mL (≈ 20.2 µM)

CN1CCN(c2ccc(N3C[C@H](Cn4ccnn4)OC3=O)cc2F)C=N1 [Compound 83]
solubility at 30 min [6]: 117 mg/mL (≈ 326000 µM) | CC50 at 48 h [1]: > 130 µM | IC50 [2]: 19 µM | IC50 [3]: 207 µM | MIC90 [4]: 1 µg/mL (≈ 2.78 µM) | MIC [5]: 16 µg/mL (≈ 44.5 µM)

CN1CCN(c2ccc(N3C[C@H](CNc4ccon4)OC3=O)cc2F)C=N1 [Compound 89]
% solubility in water ([6]; methanesulfonate (MSA) of the compound, saturated solution in D2O, linezolid as reference): (13%) | solubility at 30 min ([6]; read-out: Solubility of methanesulfonate in water): 129 mg/mL (≈ 345000 µM) | CC50 at 48 h ([1]; CHO-K1 cells, 48 hours treatment, MTT, read-out: CC50): > 130 µM | IC50 [2]: 5.2 µM | IC50 [3]: > 250 µM | MIC90 [4]: 0.5 µg/mL (≈ 1.34 µM) | MIC [5]: 8 µg/mL (≈ 21.4 µM)

CN1CCN(c2ccc(N3C[C@H](CO)OC3=O)cc2F)C=N1 [Compound 94]
solubility at 30 min [6]: 136 mg/mL (≈ 441000 µM) | CC50 at 48 h [1]: > 130 µM | IC50 [2]: 4 µM | IC50 [3]: 176 µM | MIC90 [4]: 1 µg/mL (≈ 3.24 µM) | MIC [5]: 64 µg/mL (≈ 208 µM)

COC(=S)NC[C@H]1CN(c2ccc(N3C=NOCC3)cc2)C(=O)O1 [Compound 102]
CC50 at 48 h [1]: > 130 µM | IC50 [2]: 89 µM | IC50 [3]: 84 µM | MIC90 [4]: 0.25 µg/mL (≈ 0.713 µM) | MIC [5]: 4 µg/mL (≈ 11.4 µM)

CC(=O)NC[C@H]1CN(c2ccc(N3CCOCC3)c(F)c2)C(=O)O1 [Linezolid, linezolid, reference compound]
CC50 at 48 h [1]: > 130 µM | IC50 [2]: 7.9 µM | IC50 [3]: 4.3 µM | MIC90 [4]: 2 µg/mL (≈ 5.93 µM) | MIC90 [5]: 32 µg/mL (≈ 94.9 µM)

Cn1nnc(-c2ccc(-c3ccc(N4C[C@H](CO)OC4=O)cc3F)cn2)n1 [TR-700, reference compound]
CC50 at 48 h [1]: 28 µM | IC50 [2]: < 2 µM | IC50 [3]: 6.1 µM
